Laboratory results taken from PMC12067438 (Journal of Medicinal Chemistry, 2025).

How the values were obtained:
[1] = tested on: global proteome of H1792 SMARCA4-WT cell line; test: Quantitative TMT mass spectrometry of global proteome; assay type: cell-based, human; conditions: 100 nM YDR1 48 h, 20 nM YD54 24 h
[2] = tested on: H2030 xenograft model (SMARCA4 mutant); test: H2030 xenograft antitumor efficacy; assay type: in vivo, mouse; conditions: 5 mg/kg once daily, 17 days, 1% Tween 80 formulation
[3] = tested on: HCC515 xenograft model (SMARCA4 mutant); test: HCC515 xenograft antitumor efficacy; assay type: in vivo, mouse; conditions: 5 mg/kg once daily, 19 days, 1% Tween 80 formulation
YAP1 = YAP1 phosphorylation immunoblot in H322 cells; assay type: cell-based, human; conditions: H322 SMARCA4 mutant cells, 96 h; 1 µM YDR1, 0.1 µM YD54
[4] = Plasma pharmacokinetics after single oral or intraperitoneal dose; assay type: in vivo, mouse; conditions: for Oral bioavailability (in words): 25 mg/kg oral, mice
[5] = Human liver microsomal stability assay; assay type: in vitro ADME; conditions: for remaining (T = 60 min): with NADPH
[6] = tested on: H2023 xenograft model (SMARCA4 mutant); test: H2023 xenograft antitumor efficacy; assay type: in vivo, mouse; conditions: 5 mg/kg once daily, 19 days
[7] = Mouse liver microsomal stability assay; assay type: in vitro ADME; conditions: for remaining (T = 60 min): mouse microsomal assay, with NADPH; for CLint scaled at 1 h / half-life at 1 h / microsomal CLint at 1 h: mouse, liver microsomes
[8] = tested on: H1568 xenograft model (SMARCA4 mutant); test: H1568 xenograft antitumor efficacy; assay type: in vivo, mouse; conditions: 40 mg/kg once daily, 13 days
SMARCA4 = SMARCA4 (Mus musculus, UniProt Q3TKT4); test: PK/PD study: SMARCA4 in spleen by Western blot; assay type: in vivo; conditions: C57BL/6 and Crbn I391V mice, compared to SMARCA2
SMARCA2 = SMARCA2 (Homo sapiens, UniProt P51531); test: SMARCA2 protein levels in xenograft tumors by Western blot; assay type: in vivo; conditions: H1568 xenograft efficacy study, 40 mg/kg once daily, 13 days
[9] = 21-day tolerability in mice; assay type: in vivo, mouse
ERK = test: pERK immunoblot in H2030 cells; conditions: sotorasib 0.5 µM, YDR1 or YD54 1.25 µM, 72 hours (YDR1), 48 hours (YD54)

Chain of SMARCA4 (Q3TKT4 whole entry): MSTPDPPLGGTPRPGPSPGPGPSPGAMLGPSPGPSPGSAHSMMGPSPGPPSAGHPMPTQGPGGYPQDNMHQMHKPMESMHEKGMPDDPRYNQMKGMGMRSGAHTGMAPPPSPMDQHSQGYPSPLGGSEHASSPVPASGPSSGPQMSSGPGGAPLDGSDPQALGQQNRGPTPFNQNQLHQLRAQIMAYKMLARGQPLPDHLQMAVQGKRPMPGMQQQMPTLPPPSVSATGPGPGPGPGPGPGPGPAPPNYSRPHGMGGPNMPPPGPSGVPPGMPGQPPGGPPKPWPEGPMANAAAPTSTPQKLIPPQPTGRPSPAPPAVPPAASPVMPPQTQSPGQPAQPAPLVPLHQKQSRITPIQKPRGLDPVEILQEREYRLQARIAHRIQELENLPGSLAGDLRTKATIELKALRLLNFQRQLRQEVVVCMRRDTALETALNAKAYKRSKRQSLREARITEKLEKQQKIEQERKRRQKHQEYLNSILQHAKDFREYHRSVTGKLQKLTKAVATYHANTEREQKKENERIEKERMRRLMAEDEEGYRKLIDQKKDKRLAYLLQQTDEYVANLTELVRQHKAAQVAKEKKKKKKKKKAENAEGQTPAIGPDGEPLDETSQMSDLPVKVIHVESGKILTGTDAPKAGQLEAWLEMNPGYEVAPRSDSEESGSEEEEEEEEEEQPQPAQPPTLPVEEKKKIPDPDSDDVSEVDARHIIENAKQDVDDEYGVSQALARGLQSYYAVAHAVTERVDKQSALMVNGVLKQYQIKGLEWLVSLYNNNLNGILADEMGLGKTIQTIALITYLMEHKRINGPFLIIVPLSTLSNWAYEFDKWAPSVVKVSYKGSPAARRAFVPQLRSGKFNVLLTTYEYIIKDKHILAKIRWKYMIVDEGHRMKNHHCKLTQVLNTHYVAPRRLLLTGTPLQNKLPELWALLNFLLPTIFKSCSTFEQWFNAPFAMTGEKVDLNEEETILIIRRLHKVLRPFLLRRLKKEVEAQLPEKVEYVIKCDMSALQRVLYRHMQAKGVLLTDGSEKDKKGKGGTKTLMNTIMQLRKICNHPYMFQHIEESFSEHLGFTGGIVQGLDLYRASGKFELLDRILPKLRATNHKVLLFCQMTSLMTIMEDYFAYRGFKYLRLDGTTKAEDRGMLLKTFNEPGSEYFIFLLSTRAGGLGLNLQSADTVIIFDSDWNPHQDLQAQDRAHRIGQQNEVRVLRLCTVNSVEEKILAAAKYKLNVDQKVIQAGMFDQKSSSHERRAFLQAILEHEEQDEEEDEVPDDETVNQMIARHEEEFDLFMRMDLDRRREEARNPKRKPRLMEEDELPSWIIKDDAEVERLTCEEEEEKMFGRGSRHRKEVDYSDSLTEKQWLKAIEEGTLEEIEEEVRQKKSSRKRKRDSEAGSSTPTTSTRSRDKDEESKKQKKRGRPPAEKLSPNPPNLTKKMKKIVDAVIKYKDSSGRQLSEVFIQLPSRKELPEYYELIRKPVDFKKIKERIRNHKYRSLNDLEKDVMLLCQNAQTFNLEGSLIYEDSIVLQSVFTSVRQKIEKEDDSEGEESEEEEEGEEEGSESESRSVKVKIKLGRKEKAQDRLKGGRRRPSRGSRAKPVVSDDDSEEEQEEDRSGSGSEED
Chain of SMARCA2 (P51531 whole entry): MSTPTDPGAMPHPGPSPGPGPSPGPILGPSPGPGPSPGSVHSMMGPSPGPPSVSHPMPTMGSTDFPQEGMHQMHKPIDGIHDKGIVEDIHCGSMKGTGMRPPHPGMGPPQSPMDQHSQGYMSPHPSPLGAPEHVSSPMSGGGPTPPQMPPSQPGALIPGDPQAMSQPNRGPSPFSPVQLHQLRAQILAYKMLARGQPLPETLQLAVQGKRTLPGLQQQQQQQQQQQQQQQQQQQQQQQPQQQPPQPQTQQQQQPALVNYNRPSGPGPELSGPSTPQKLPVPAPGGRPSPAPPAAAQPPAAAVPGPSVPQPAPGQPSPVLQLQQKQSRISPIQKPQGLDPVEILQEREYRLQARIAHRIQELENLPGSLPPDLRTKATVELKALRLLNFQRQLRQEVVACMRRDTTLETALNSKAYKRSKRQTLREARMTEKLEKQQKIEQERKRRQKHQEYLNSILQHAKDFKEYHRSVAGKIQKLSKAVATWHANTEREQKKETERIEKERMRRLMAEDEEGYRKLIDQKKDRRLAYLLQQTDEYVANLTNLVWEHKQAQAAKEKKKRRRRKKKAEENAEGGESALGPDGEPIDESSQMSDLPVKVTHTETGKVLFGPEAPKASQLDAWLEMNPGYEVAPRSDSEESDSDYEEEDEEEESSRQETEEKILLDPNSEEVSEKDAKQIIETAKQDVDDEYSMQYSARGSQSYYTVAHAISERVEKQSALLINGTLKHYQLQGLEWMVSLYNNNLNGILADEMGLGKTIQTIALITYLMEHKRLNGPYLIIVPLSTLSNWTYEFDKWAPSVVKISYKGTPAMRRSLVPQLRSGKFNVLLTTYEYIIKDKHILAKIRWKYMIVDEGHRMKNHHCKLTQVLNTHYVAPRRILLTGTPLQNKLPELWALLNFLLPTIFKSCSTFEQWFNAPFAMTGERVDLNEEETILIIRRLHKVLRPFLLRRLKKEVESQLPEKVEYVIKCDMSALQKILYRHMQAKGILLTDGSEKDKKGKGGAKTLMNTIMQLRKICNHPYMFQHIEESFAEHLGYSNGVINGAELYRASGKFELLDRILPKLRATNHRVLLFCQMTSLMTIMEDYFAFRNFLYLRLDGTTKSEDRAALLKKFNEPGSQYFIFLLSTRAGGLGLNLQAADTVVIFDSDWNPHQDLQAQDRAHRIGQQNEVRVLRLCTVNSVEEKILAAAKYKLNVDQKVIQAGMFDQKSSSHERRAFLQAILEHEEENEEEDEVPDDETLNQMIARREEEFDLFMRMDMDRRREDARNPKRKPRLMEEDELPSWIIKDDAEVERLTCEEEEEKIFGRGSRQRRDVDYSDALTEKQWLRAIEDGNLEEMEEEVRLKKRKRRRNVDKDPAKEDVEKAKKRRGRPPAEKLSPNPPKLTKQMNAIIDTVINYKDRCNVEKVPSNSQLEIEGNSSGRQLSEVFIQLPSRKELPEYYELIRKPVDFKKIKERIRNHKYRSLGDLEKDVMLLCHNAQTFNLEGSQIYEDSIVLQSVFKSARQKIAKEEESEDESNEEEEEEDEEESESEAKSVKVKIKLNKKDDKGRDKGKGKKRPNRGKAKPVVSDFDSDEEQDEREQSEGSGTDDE

| SMILES | SMARCA4 level in TMT proteomics [1] | Phosphorylation of YAP1 at S109 (YAP1) | Phosphorylation of YAP1 at S127 (YAP1) | Oral bioavailability (in words) [4] | Clearance class in human microsomal assays ([5]; human microsomal assay) | remaining (T = 60 min) ([5]; human microsomal assay) | CLint scaled at 1 h ([5]; human, liver microsomes) | remaining (T = 60 min) [7] | CLint scaled at 1 h [7] | half-life at 1 h [7] | microsomal CLint at 1 h [7] | further results |
| --- | --- | --- | --- | --- | --- | --- | --- | --- | --- | --- | --- | --- |
| Nc1nnc(-c2ccccc2O)cc1N1CCN(Cc2ccc(N3CCN(CCOc4cccc5c4C(=O)N(C4CCC(=O)NC4=O)C5=O)CC3)c(F)c2)CC1 (stereo not drawn) [YD54] | minimally altered | drastic increase | potent increase | orally bioavailable | moderate clearance | 0.3234 | 35.8 mL/min/kg | 0.414 | 119 mL/min/kg | 45.9 min | 30.2 µL/min/mg | reduction in body weight compared to controls [2]: < 20%; reduction in body weight compared to controls [3]: < 20%; half-life at 1 h ([5]; human, liver microsomes, T1/2, human microsomal assay): 34.9 min; reduction in body weight compared to controls [6]: < 10% |
| Nc1nnc(-c2ccccc2O)cc1N1CCN(Cc2ccc(N3CCC(CN4CCN(c5ccc6c(c5)C(=O)N(C5CCC(=O)NC5=O)C6=O)CC4)CC3)c(F)c2)CC1 (stereo not drawn) [YDR1] | minimally altered | drastic increase | potent increase | robust oral bioavailability | slow clearance | 0.4743 | 21.5 mL/min/kg | 0.4998 | 91.9 mL/min/kg | 59.7 min | 23.2 µL/min/mg | Tolerability in efficacy study [8]: well tolerated with no change in body weight; reduction in body weight compared to controls [8]: < 10%; degradation of SMARCA4 in spleen (SMARCA4): only modestly degraded; degradation of SMARCA2 in tumors (SMARCA2): about 50%; half-life ([4]; CD-1, mouse, plasma, oral, 25 mg/kg): > 1440 min; T1/2 ([5]; human microsomal assay): 58.024 min; microsomal CLint at 1 h ([5]; human, liver microsomes): 23.9 µL/min/mg; Body weight and signs of toxicity ([9]; daily treatment up to 80 mg/kg for 21 days): minimal body weight loss and no obvious signs of toxicity or morbidity; Tolerability ([9]; daily treatment with increasing doses up to 80 mg/kg for 21 days): well tolerated |
| C=CC(=O)N1CCN(c2nc(=O)n(-c3c(C)ccnc3C(C)C)c3nc(-c4c(O)cccc4F)c(F)cc23)[C@@H](C)C1 [sotorasib] | – | – | – | – | – | – | – | – | – | – | – | phosphorylation of ERK (ERK): robustly reduced phosphorylation of ERK |
